PubChem BioAssay (NCI)
Values joined by “and” are separate entries in the source; they are usually repeats but may differ in a detail not shown here. Equal values may be shown once.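 96-well plates; 48 h exposure; 5 concentrations. Endpoints by linear interpolation between flanking doses. Not reached: highest tested concentration assigned. GI50: concentration for 50% inhibition of growth. TGI: total growth inhibition.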

Key:
Assay in all cases: NCI tumour cell line growth inhibition, 48 h
[1] = system: HOP-92 NSCLC
[2] = system: NCI-H23 lung
[3] = system: NCI/ADR-RES ovarian
[4] = system: OVCAR-8 ovarian
[5] = system: RXF 393 renal
[6] = system: SF-295 CNS
[7] = system: SK-MEL-5 melanoma
[8] = system: SNB-19 CNS
[9] = system: SR leukemia

SMILES | GI50 [1] | TGI [1] | GI50 [2] | TGI [2] | GI50 [3] | TGI [3] | GI50 [4] | TGI [4] | GI50 [5] | TGI [5] | GI50 [6] | TGI [6] | GI50 [7] | TGI [7] | GI50 [8] | TGI [8] | GI50 [9] | TGI [9]
O=C1Nc2ccccc2C1(c1ccc(O)cc1)c1ccc(O)cc1 | 2.42 µM | 21.2 µM | 1.23 µM | 37.8 µM | 0.982 µM | > 100 µM | 0.273 µM | 77.5 µM | 0.445 µM | 13.4 µM | 16.2 µM | 49.4 µM | 14.7 µM | 29.3 µM | 34.3 µM | > 97 µM | 32.9 µM | > 96.3 µM
O=C1c2cccc([N+](=O)[O-])c2C(=O)N1c1ncn[nH]1 |  | 52.6 µM |  | > 100 µM |  | > 100 µM |  | > 100 µM |  | > 100 µM |  | > 100 µM |  | > 100 µM |  | > 100 µM |  | > 100 µM
O=C(O)/C=C(\c1nc2ccc([N+](=O)[O-])cc2[nH]1)c1cc(Cl)ccc1O | 0.711 µM | 5.35 µM | 1.96 µM | 19.6 µM | 2.71 µM | > 100 µM | 3.28 µM | > 100 µM | 3.55 µM | 21.2 µM | 3.43 µM | 20.1 µM | 1.1 µM | 4.06 µM | 3.5 µM | > 100 µM | 3.23 µM | 18.5 µM
CC1CN1C(=O)NCCCCCCNC(=O)N1CC1C (configuration not stated) |  | > 100 µM |  | > 100 µM |  | > 100 µM |  | > 100 µM |  | > 100 µM |  | > 100 µM |  | > 100 µM |  | > 100 µM |  | 60.2 µM
CC(=O)O[C@H]1C(=O)[C@@]2(C)C(C(OC(=O)c3ccccc3)[C@]3(O)CC(OC(=O)[C@H](OC(=O)CCC(=O)O)C(NC(=O)c4ccccc4)c4ccccc4)C(C)=C1C3(C)C)C1(OC(C)=O)COC1C[C@@H]2O (some centres not stated) |  | > 78.8 µM and 91.8 µM |  | > 100 µM | 8.73 µM and 17.7 µM | 61.9 µM and > 72.3 µM | 0.0159 µM and 0.038 µM | > 100 µM | < 0.0249 µM and 0.0528 µM | 2.79 µM | 0.0471 µM and 0.18 µM | 2.27 µM |  | 13.9 µM and 18 µM |  | > 100 µM |  | < 0.01 µM and 0.0173 µM
CS(=O)(=O)CCNCc1ccc(-c2ccc3ncnc(Nc4ccc(OCc5ccccc5)cc4)c3c2)o1 | 3.13 µM | 14.1 µM | 8.57 µM | > 25 µM | 6.71 µM | > 25 µM | 8.73 µM | > 25 µM | 4.12 µM | 10.1 µM | 4.89 µM | 10.8 µM | 3.72 µM | 7.11 µM | 11.1 µM | > 25 µM | 5.06 µM | > 19.9 µM
Nc1nc2c(nnn2C2CC(O)C(CO)O2)c(=O)[nH]1 (configuration not stated) | 1.62 µM | 51.1 µM | 4.61 µM | > 100 µM | 3.08 µM | > 100 µM | 3.71 µM | > 100 µM | 3.05 µM | 33.8 µM | 2.54 µM | > 56.3 µM | 14.7 µM | > 89 µM | 34.1 µM | > 100 µM | 2.54 µM | > 76.2 µM
O=C(O)C(=Cc1ccc(-c2ccccc2)cc1)C(=O)O |  | > 68.6 µM |  | 32.2 µM |  | > 94 µM |  | > 92 µM |  | 14.5 µM |  | 53.3 µM |  | 23.9 µM |  | 37.9 µM |  | 14.7 µM
